Assay results published in ChEMBL document CHEMBL1764965, “Contribution of cinnamic acid analogues in rosmarinic acid to inhibition of snake venom induced hemorrhage” (Bioorg Med Chem, 2011).

Species: Mus musculus
Experiment: cells; call rule not given here
Type: functional, organism-based, ddY
[1] = Mus musculus, ddY, read-out: IC50

Compound	IC50 [1] [nM]	IC50
O=C(O)/C=C/c1ccc(O)cc1 [COUMARIC ACID]	190	
O=C(O)/C=C/c1ccc(O)c(O)c1 [CAFFEIC ACID]	190	
OC/C=C/c1ccccc1 [CINNAMIC ALCOHOL]		Not Active
O=C(O)CCc1ccc(O)c(O)c1 [DIHYDROCAFFEIC ACID]		Not Active
O=C(/C=C/c1ccc(O)c(O)c1)O[C@@H]1C[C@](O)(C(=O)O)C[C@@H](O)[C@H]1O [CHLOROGENIC ACID]	200	
COc1cc(CC(O)C(=O)O)ccc1O (stereo unspecified)		Not Active
O=C/C=C/c1ccccc1 [CINNAMALDEHYDE]		Not Active
O=C(O)/C=C/C=C/c1ccccc1 [JUAREZIC ACID]	220	
O=C(O)/C=C/c1ccccc1 [CINNAMIC ACID]	180	
C/C=C/C(=O)O [CROTONIC ACID]	220	
O=C(O)/C=C\c1ccc(O)c(O)c1O		Not Active
COc1ccc(/C=C/C(=O)O)cc1OC [O,O'-DIMETHYLCAFFEIC ACID]	240	
O=C(O)/C=C\c1cc(O)c(O)c(O)c1		Not Active
COc1cc(/C=C/C(=O)O)ccc1O [FERULATE]	200	
O=C(O)/C=C\c1cc(O)c(O)cc1O		Not Active
O=C(O)/C=C/c1ccccc1O [O-COUMARIC ACID]	190	
O=C(C=Cc1ccc(O)c(O)c1)O[C@H](Cc1ccc(O)c(O)c1)C(=O)O (mixture of isomers) [(E/Z)-ROSMARINIC ACID]	600	
O=C(/C=C/c1ccc(O)c(O)c1)O[C@H](Cc1ccc(O)c(O)c1)C(=O)O [ROSMARINIC ACID]	150	
O=C(O)/C=C/c1ccc(O)cc1O	210	
C/C=C/C=C/C(=O)O [SORBIC ACID]	210	
COC(=O)[C@@H](Cc1ccc(O)c(O)c1)OC(=O)C=Cc1ccc(O)c(O)c1 (mixture of isomers) [ROSMARINIC ACID METHYL ESTER]		Not Active
O=C(CCc1ccc(O)c(O)c1)O[C@H](Cc1ccc(O)c(O)c1)C(=O)O		Not Active
COC(=O)/C=C/c1ccccc1 [E-METHYL CINNAMATE]		Not Active
O=C(O)/C=C/c1cccc(O)c1	180	
COC(=O)/C=C/c1ccc(O)c(O)c1 [METHYLCAFFEATE]		Not Active
O=C(O)/C=C/c1cc(O)c(O)c(O)c1	180	
